US20220226337A1 (Gilead Sciences, Inc., priority 2018, published 2022)

Target: T1, α4β7 integrin interaction with MadCAM-1 (RPMI8866 cells) (Homo sapiens, UniProt P13612+P26010)
T1 construct: α4β7 integrin expressing cells; endogenous in cells; host or cells: RPMI8866 cells
T1 sequence (P13612 34-1032): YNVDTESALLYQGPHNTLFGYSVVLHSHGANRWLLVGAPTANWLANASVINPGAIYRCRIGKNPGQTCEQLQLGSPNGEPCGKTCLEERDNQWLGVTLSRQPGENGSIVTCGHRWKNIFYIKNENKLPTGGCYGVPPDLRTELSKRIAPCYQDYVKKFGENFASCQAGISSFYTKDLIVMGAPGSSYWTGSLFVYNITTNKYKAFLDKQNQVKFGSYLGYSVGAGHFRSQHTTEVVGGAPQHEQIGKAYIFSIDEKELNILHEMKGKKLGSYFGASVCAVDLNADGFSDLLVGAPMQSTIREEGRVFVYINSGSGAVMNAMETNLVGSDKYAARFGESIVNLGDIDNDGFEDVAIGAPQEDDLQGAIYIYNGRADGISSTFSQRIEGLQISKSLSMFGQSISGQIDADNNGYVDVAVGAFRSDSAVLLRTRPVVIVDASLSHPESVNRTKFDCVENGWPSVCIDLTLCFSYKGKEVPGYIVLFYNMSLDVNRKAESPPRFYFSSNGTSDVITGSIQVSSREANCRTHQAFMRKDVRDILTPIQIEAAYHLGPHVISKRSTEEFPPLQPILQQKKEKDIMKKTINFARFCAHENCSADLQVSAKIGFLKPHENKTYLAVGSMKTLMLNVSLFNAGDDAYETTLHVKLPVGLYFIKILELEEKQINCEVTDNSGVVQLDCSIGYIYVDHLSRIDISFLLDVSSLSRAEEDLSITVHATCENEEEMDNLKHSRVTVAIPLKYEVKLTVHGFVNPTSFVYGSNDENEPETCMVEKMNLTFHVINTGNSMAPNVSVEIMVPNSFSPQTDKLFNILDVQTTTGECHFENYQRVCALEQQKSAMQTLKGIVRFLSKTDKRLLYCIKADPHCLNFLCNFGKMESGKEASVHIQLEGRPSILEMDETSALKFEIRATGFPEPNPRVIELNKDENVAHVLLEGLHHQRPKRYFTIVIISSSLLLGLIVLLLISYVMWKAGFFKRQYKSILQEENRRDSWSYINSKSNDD
T1 sequence (P26010 20-798): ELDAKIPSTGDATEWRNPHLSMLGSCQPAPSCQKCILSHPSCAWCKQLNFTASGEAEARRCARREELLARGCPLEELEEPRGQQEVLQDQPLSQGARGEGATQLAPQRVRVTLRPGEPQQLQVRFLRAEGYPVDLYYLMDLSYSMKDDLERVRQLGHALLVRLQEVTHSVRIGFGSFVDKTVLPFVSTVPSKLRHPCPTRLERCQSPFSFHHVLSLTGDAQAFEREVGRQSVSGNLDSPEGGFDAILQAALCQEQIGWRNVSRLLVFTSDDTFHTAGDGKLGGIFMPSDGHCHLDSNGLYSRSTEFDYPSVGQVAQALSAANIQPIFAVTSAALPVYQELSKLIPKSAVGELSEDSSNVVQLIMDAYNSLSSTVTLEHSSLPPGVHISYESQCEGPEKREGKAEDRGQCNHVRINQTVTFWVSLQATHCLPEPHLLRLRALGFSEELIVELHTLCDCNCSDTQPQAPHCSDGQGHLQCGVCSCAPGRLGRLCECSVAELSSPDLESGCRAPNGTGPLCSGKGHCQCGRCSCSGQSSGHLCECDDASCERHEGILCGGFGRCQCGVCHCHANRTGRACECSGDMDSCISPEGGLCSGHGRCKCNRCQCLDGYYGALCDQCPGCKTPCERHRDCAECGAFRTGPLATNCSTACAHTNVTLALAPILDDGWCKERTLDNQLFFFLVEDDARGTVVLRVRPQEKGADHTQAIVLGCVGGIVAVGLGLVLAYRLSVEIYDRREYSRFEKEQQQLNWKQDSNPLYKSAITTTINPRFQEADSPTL
Experiment: α4β7 Integrin Cell Capture Assay
Assay type: cell-based
Settings: capture of α4β7 integrin expressing RPMI8866 cells on recombinant MadCAM-1 extracellular domain-coated plate; 0.5 mM MnCl2
Outline: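 RPMI8866 cells (0.5×10^6 cells/mL in DMEM + 0.5% FBS + 0.5 mM MnCl2) preincubated with compound 1 h at 37 °C, then allowed to adhere 30 min at 37 °C to plates coated with MAdCAM-1 extracellular domain (1.0 μg/mL). Bound cells fixed with 2% glutaraldehyde, Hoechst-stained, imaged and counted; EC50 from cell count versus concentration.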

**Q.** `O=C(N[C@@H](Cc1ccc(-c2c(Cl)cc(F)cc2Cl)c2c1[C@@H]1C[C@@H]1CO2)C(=O)O)c1c(Cl)cccc1Cl` (single isomer, unassigned) [Example 82] was tested. Which EC50 did it give?
**A.** 42 nM

**Q.** For `Cn1c(=O)c(-c2ccc(C[C@H](NC(=O)c3c(F)cccc3F)C(=O)O)c3c2OCCO3)cc2ccccc21` [Example 1, (S)-2-(2,6-difluorobenzamido)-3-(8-(1-methyl-2-oxo-1,2-dihydroquinolin-3-yl)-2,3-dihydrobenzo[b][1,4]dioxin-5-yl)propanoic acid], which EC50 is on record?
**A.** 11 nM

**Q.** For `O=C(N[C@@H](Cc1ccc(-c2cc(F)c(F)c3c2OCCC3)c2c1CCCO2)C(=O)O)c1c(Cl)cccc1Cl` [Example 90, (S)-2-(2,6-dichlorobenzamido)-3-(5′,6′-difluoro-[8,8′-bichroman]-5-yl)propanoic acid], which EC50 is on record?
**A.** 16 nM

**Q.** Which EC50 does the source give for `Cc1c(-c2ccc(C[C@H](NC(=O)c3c(F)cc(N4CCOC[C@@H]4C(F)(F)F)cc3F)C(=O)O)c3c2COC3)c(=O)n(C)c(=O)n1C` [Example 14, (S)-2-(2,6-difluoro-4-((R)-3-(trifluoromethyl)morpholino)benzamido)-3-(7-(1,3,6-trimethyl-2,4-dioxo-1,2,3,4-tetrahydropyrimidin-5-yl)-1,3-dihydroisobenzofuran-4-yl) propanoic acid] here?
**A.** 0.38 nM

**Q.** `Cc1cc(C)n(C)c(=O)c1-c1ccc(C[C@H](NC(=O)c2c(F)cc(N3CCOC[C@@H]3C(F)(F)F)cc2F)C(=O)O)c2c1OCCC2` [Example 161] was tested. Which EC50 did it give?
**A.** 0.364 nM

**Q.** With `Cc1nc(-c2ccc(C[C@H](NC(=O)c3c(F)cc(N4CCOC[C@@H]4C(F)(F)F)cc3F)C(=O)O)c3c2CCC3)c(=O)n(C)c1C` [Example 193] as the molecule, how does the EC50 read?
**A.** 0.264 nM

**Q.** Which EC50 does the source give for `CC[C@@H](Nc1cc(F)c(C(=O)N[C@@H](Cc2ccc(-c3c(C)n(C)c(=O)n(C)c3=O)c3c2CCCO3)C(=O)O)c(F)c1)C(F)(F)F` (single isomer, unassigned) [Example 56] here?
**A.** 0.961 nM

**Q.** `O=C(N[C@@H](Cc1ccc(-c2ncc3ccccc3c2C(F)(F)F)c2c1OCCO2)C(=O)O)c1c(F)cccc1F` [Example 12, (S)-2-(2,6-difluorobenzamido)-3-(8-(4-(trifluoromethyl)isoquinolin-3-yl)-2,3-dihydrobenzo[b][1,4]dioxin-5-yl)propanoic acid] was tested. Which EC50 did it give?
**A.** 13.9 nM

**Q.** `Cc1cc(C)n(C)c(=O)c1-c1ccc(C[C@H](NC(=O)c2c(F)cc(N[C@H](C)C(F)(F)F)cc2F)C(=O)O)c2c1COC2` [Example 30, (S)-2-(2,6-difluoro-4-(((R)-1,1,1-trifluoropropan-2-yl)amino)benzamido)-3-(7-(1,4,6-trimethyl-2-oxo-1,2-dihydropyridin-3-yl)-1,3-dihydroisobenzofuran-4-yl)propanoic acid] was tested. Which EC50 did it give?
**A.** 1.74 nM

**Q.** With `Cc1cc(N2CCOC[C@@H]2C(F)(F)F)cc(F)c1C(=O)N[C@@H](Cc1ccc(-c2c(C)nc(C)n(C)c2=O)c2c1CCCO2)C(=O)O` (atropisomer, axis not shown) [Example 119] as the molecule, how does the EC50 read?
**A.** 0.089 nM

**Q.** Which EC50 does the source give for `Cc1cc(N2CCOC[C@@H]2C(F)(F)F)cc(F)c1C(=O)N[C@@H](Cc1ccc(-c2c(N3CCC3)cc(C)n(C)c2=O)c2c1CCCO2)C(=O)O` [Example 145] here?
**A.** 0.714 nM

**Q.** `Cc1c(-c2ccc(C[C@H](NC(=O)c3c(F)cc(N4CCOC[C@@H]4C(F)(F)F)cc3F)C(=O)O)c3c2OCCO3)c(=O)n(C)c(=O)n1C` (single isomer, unassigned) [Example 9] was tested. Which EC50 did it give?
**A.** 0.431 nM

**Q.** With `Cc1c(-c2ccc(C[C@H](NC(=O)c3c(F)cccc3F)C(=O)O)c3c2CCOC3)c(=O)n(C)c2ccc(F)cc12` [Example 35, (S)-2-(2,6-difluorobenzamido)-3-(5-(6-fluoro-1,4-dimethyl-2-oxo-1,2-dihydroquinolin-3-yl)isochroman-8-yl)propanoic acid] as the molecule, how does the EC50 read?
**A.** 1.96 nM

**Q.** How did the EC50 turn out when `CS(=O)(=O)Nc1cc(F)c(C(=O)N[C@@H](Cc2ccc(-c3c(Cl)cc(F)cc3Cl)c3c2CCCO3)C(=O)O)c(F)c1` [Example 92, (S)-3-(8-(2,6-dichloro-4-fluorophenyl)chroman-5-yl)-2-(2,6-difluoro-4-(methylsulfonamido)benzamido)propanoic acid] was run?
**A.** 9.19 nM

**Q.** With `Cn1ncc(C(F)(F)F)c(-c2ccc(C[C@H](NC(=O)c3c(F)cc(N4CCOC[C@@H]4C(F)(F)F)cc3F)C(=O)O)c3c2OCCC3)c1=O` [Example 132] as the molecule, how does the EC50 read?
**A.** 0.193 nM

**Q.** Which EC50 does the source give for `COCN(C(=O)c1c(F)cc(N2CCOC[C@@H]2C(F)(F)F)cc1F)[C@@H](Cc1ccc(-c2nc(C)c(C)n(C)c2=O)c2c1CCCO2)C(=O)O` [Example 116] here?
**A.** 19 nM

**Q.** For `COc1cc(F)c(F)cc1-c1ccc(C[C@H](NC(=O)c2c(Cl)cccc2Cl)C(=O)O)c2c1OCCC2` [Example 70, (S)-2-(2,6-dichlorobenzamido)-3-(8-(4,5-difluoro-2-methoxyphenyl)chroman-5-yl)propanoic acid], which EC50 is on record?
**A.** 30.5 nM

**Q.** `Cn1cc(C(F)(F)F)nc(-c2ccc(C[C@H](NC(=O)c3c(F)cc(N4CCOC[C@@H]4C(F)(F)F)cc3F)C(=O)O)c3c2OCCC3)c1=O` [Example 123] was tested. Which EC50 did it give?
**A.** 0.978 nM

**Q.** `Cc1cn(C)c(=O)c(-c2ccc(C[C@H](NC(=O)c3c(F)cc(N4CCOC[C@@H]4C(F)(F)F)cc3F)C(=O)O)c3c2OCCC3)n1` [Example 168] was tested. Which EC50 did it give?
**A.** 0.946 nM

**Q.** With `CCc1nc(-c2ccc(C[C@H](NC(=O)c3c(C)cccc3F)C(=O)O)c3c2OCCO3)c(=O)n(C)c1CC` [Example 180] as the molecule, how does the EC50 read?
**A.** 5.04 nM

**Q.** How did the EC50 turn out when `O=C(N[C@@H](Cc1ccc(-c2c(Cl)cc(F)cc2Cl)c2c1OCCO2)C(=O)O)c1c(F)cccc1OC(F)F` [Example 6, (S)-3-(8-(2,6-dichloro-4-fluorophenyl)-2,3-dihydrobenzo[b][1,4]dioxin-5-yl)-2-(2-(difluoromethoxy)-6-fluorobenzamido)propanoic acid] was run?
**A.** 444 nM

**Q.** For `CC[C@@H](Nc1cc(F)c(C(=O)N[C@@H](Cc2ccc(-c3nc(C)c(C)n(C)c3=O)c3c2CCCO3)C(=O)O)c(F)c1)C(F)(F)F` [Example 49, (S)-2-(2,6-difluoro-4-(((R)-1,1,1-trifluorobutan-2-yl)amino)benzamido)-3-(8-(4,5,6-trimethyl-3-oxo-3,4-dihydropyrazin-2-yl)chroman-5-yl)propanoic acid], which EC50 is on record?
**A.** 0.83 nM

**Q.** With `CC[C@@H](Nc1cc(F)c(C(=O)N[C@@H](Cc2ccc(-c3c(C)cc(C)n(C)c3=O)c3c2CCCO3)C(=O)O)c(F)c1)C(F)(F)F` [Example 52, (S)-2-(2,6-difluoro-4-(((R)-1,1,1-trifluorobutan-2-yl)amino)benzamido)-3-(8-(1,4,6-trimethyl-2-oxo-1,2-dihydropyridin-3-yl)chroman-5-yl)propanoic acid] as the molecule, how does the EC50 read?
**A.** 1.63 nM

**Q.** How did the EC50 turn out when `Cc1cc(C)n(C)c(=O)c1-c1ccc(C[C@H](NC(=O)c2c(F)cc(N3CCOC[C@@H]3C(F)(F)F)cc2F)C(=O)O)c2c1COC2` [Example 27, (S)-2-(2,6-difluoro-4-((R)-3-(trifluoromethyl)morpholino)benzamido)-3-(7-(1,4,6-trimethyl-2-oxo-1,2-dihydropyridin-3-yl)-1,3-dihydroisobenzofuran-4-yl)propanoic acid] was run?
**A.** 0.822 nM

**Q.** `Cc1cc(-c2ccc(C[C@H](NC(=O)c3c(F)cc(N4CCOC[C@@H]4C(F)(F)F)cc3F)C(=O)O)c3c2OCCC3)c(=O)n(C)c1C` [Example 162] was tested. Which EC50 did it give?
**A.** 0.78 nM

**Q.** How did the EC50 turn out when `Cc1cc(N2CCOC[C@@H]2C(F)(F)F)cc(F)c1C(=O)N[C@@H](Cc1ccc(-c2c(C)c(C(F)(F)F)cn(C)c2=O)c2c1CCC2)C(=O)O` [Example 196] was run?
**A.** 0.264 nM
